# Where a name gives a salt, the structure may show the parent alone.
# Columns and labels:
# [1] = test system: bacterial strains that express OXA-15 β-lactamases; test: Standard BLI potentiation MIC / synergy MIC assays, strains expressing OXA-15; format: cell-based, E. coli; conditions: in combination with a β-lactam; versus Avibactam (comparator compound CCC)
# Source text: (§1) A set of β-lactamase expressing isogenic E. coli strains was constructed by cloning a β-lactamase gene into a customized derivative of pBR322 (GenBank Accession Number J01749) and transforming the engineered plasmids into E. coli. The NdeI restriction site within the plasmid backbone of pBR322 was removed to generate pBR322ΔNdeI. The pBR322ΔNdeI vector itself, minus the blaTEM-1 gene, was amplified using two primers: (1) pBR-Pbla 5′-[…]-3, SEQ ID 1, a primer with an engineered NdeI restriction site at the 3′ end of the blaTEM-1 promoter and (2) pBR-vec-1 5′-[…]-3′, SEQ ID 2, a primer with an engineered BamHI restriction site at the 3′ end of the blaTEM-1 open reading frame. The chloramphenicol resistance gene, cat, was generated by PCR amplification from pKD3 (GenBank Accession Number AY048742) using primers with an engineered NdeI restriction site at the 5′ end (Pbla-cat 5′-[…]-3′, SEQ ID 3) and an engineered BamHI restriction site at the 3′ end (Vec-1-cat 5′-[…]-3′, SEQ ID 4) of the resistance gene. The two PCR products, pBR322ΔNdeI and cat were ligated together generating pBR-CBST (pBR322ΔNdeI ΔTEM-1::cat Seq. ID 5) which retains both the pBR322 tetracycline resistance cassette, tetA, and the plasmid origin of replication but the blaTEM-1 gene was replaced by the cat gene.
# (§2) Using this engineering strategy a number of plasmids producing β-lactamase genes from different classes (see below) were generated using synthetic genes with an engineered NdeI restriction site at the 5′ end and BamHI restriction site at the 3′ end of each gene (GenScript). Both the synthetic β-lactamase genes and cat gene were ligated into the NdeI/BamHI sites of the pBR322ΔNdeI PCR product and transformed into electrocompetent E. coli ElectroMax DH10B (Invitrogen/Life Technologies). E. coli DH10B harboring the recombinant plasmids were selected on LB agar (supplemented with 25 μg/mL tetracycline) and single isolated colonies were then inoculated into 5 mL LB media (supplemented with 25 μg/mL tetracycline), and incubated at 37° C. with aeration (250 rpm) for 18 hrs. The cultures were frozen back at −80° C. in 20% glycerol. The DNA sequence of the cloned β-lactamase genes was confirmed. The β-lactamase gene expression in the recombinant E. coli strains was driven by the blaTEM-1 promoter in the pBR-CBST plasmid and was characterized by MIC profiling of the E. coli recombinant strains against comparator β-lactam/BLI combinations in broth microdilution assay. […]
# [2] = test system: bacterial strains that express KPC β-lactamases; test: Standard BLI potentiation MIC / synergy MIC assays, strains expressing KPC; format: cell-based; conditions: in combination with a β-lactam; versus Avibactam
# Source text: as §1, §2
SMILES,activity against strains that express OXA-15 β-lactamases compared with Avibactam [1],activity / spectrum of activity against strains that express KPC β-lactamases compared with Avibactam [2]
"O=C1N2C[C@@H](CC[C@H]2c2ncno2)N1OS(=O)(=O)O [Compound 801, (2S,5R)-2-(1,2,4-oxadiazol-5-yl)-7-oxo-1,6-diazabicyclo[3.2.1]octan-6-yl hydrogen sulfate]",more active than Avibactam,"more active than, and/or show a better spectrum of activity than Avibactam"
"CCCC[N+](CCCC)(CCCC)CCCC.Nc1noc([C@@H]2CC[C@@H]3CN2C(=O)N3OS(=O)(=O)[O-])n1 [Compound 802, (2S,5R)-2-(3-amino-1,2,4-oxadiazol-5-yl)-7-oxo-1,6-diaza-bicyclo[3.2.1]octan-6-yl tetrabutylaminooxy sulfonate]",more active than Avibactam,"more active than, and/or show a better spectrum of activity than Avibactam"
"O=C1N2C[C@@H](CC[C@H]2c2ncon2)N1OS(=O)(=O)O [Compound 804, (2S,5R)-2-(1,2,4-oxadiazol-3-yl)-7-oxo-1,6-diazabicyclo[3.2.1]octan-6-yl hydrogen sulfate]",more active than Avibactam,"more active than, and/or show a better spectrum of activity than Avibactam"
"Nc1nc([C@@H]2CC[C@@H]3CN2C(=O)N3OS(=O)(=O)O)no1 [Compound 805, (2S,5R)-2-(5-amino-1,2,4-oxadiazol-3-yl)-7-oxo-1,6-diazabicyclo[3.2.1]octan-6-yl hydrogen sulfate]",more active than Avibactam,"more active than, and/or show a better spectrum of activity than Avibactam"
